Read-outs that look alike come from different tables or passages of the source.
Test system: H460 cells
Test: Antiproliferation assay (multi-well Alamar Blue based)
Type: cell-based, human
Procedure: To determine the effect of the compounds of the invention on cell proliferation, the antiproliferative activity of these compounds was tested in a multi-well Alamar Blue based assay (at 2 h and 3 days). Cell growth in the presence and absence of the test compound was compared, as measured by a fluorescence plate reader at excitation 550 nm and emission 590 nm (see Biosource International Inc., Tech Application Notes, Use of Alamar Blue in the measurement of Cell Viability and Toxicity, Determining IC50). […] After 24 hours, these plates were divided into 3 groups—Control group, 2 h treatment group, and 3 day treatment group. A test compound was added to each plate in the treatment groups (2 h and 3 day) at various concentration (in 50 μl of medium). In the 2 h treatment group, after 2 h the cells were rinsed to remove the test compound and incubated for 3 days, followed by staining with AlamarBlue. The cells in the 3 day treatment group were incubated for 3 days, followed by staining with AlamarBlue. In the Control group, AlamarBlue was added to the plate at (i) day 0 and (ii) day 3 and measured to establish the control reading.

| SMILES | GI50 (assay time period not stated) | GI90 (assay time period not stated) | GI90 (3 day treatment, AlamarBlue, GI90 also referred to as IC90) [µM] | GI50 (Homo sapiens, NCI-H460, 72 h, 3 day treatment, AlamarBlue, GI50 also referred to as IC50, read-out: GI50) [nM] |
| --- | --- | --- | --- | --- |
| COc1cc2c(cc1OC)-c1nc3cc4c(cc3n1C(CCCN(C)C)N2)OCO4 (stereo not shown) [Compound 7] | not determinable | not determinable |  |  |
| COc1cc2c(cc1OC)n(CCN(C)C)c(=O)n1c3cc4c(cc3nc21)OCO4 [Compound 14] |  |  | 1 | 600 |

From patent publication US20080214576A1, “Topoisomerase Inhibitors and Prodrugs” (Threshold Pharmaceuticals, Inc., priority 2004, published 2008)
